Molecular target: T1, human calcitonin-2 receptor (hCT2R) (Homo sapiens, UniProt P30988)
T1 construct: expressed in transfected cells; host or cells: Chinese hamster ovary (CHO) cells co-transfected with a 6CRE-luciferase reporter; receptor cDNA cloned from the MCF7 cell line
T1 sequence (P30988 25-474): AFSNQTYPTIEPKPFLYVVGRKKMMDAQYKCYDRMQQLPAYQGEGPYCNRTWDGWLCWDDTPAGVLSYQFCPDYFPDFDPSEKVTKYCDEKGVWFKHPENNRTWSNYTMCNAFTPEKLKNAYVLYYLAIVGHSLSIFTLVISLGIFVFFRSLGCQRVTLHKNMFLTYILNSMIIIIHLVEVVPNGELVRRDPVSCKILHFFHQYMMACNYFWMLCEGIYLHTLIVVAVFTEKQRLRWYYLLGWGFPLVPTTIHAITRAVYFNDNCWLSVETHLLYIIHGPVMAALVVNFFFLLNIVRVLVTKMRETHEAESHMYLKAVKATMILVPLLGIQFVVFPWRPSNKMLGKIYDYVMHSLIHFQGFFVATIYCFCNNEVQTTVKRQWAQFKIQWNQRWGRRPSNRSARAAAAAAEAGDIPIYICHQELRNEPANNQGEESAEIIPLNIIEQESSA
Assay: HCT2R CRE-luc reporter assay
Format: cell-based
Conditions: agonist activity; CHO-6CRE-luciferase cells co-transfected with hCT2R
Experimental: The compounds of the present invention elicit important and measurable pharmacological responses. As is to be expected, the efficacy of any compound will vary depending upon the particular assay and the particular compound tested.
All recombinant cell line human calcitonin receptor assays were carried out with the human receptor corresponding to GeneBank Accession Number X69920, [See: Molecular Pharmacology 46 (2):246–255, 1994, Cloning and characterization of an abundant subtype of the human calcitonin receptor] cloned from the MCF7 cell line (American Type Tissue Collection, Manassas, Va., USA, Catalog # HTB-22). Human calcitonin receptor (hCT2R) was cloned as a HindIII fragment into plasmid BS SKII. Chinese hamster ovary cells were co-transfected with a 6CRE-luciferase reporter system and hCTR2. HEK cells were transfected with hCTR2.
CHO-6CRE-luciferase cells with or without co-expressed hCTR2 were grown in suspension in commercially available cell culture medium supplemented with 2 mM L-glutamine and 5% fetal bovine serum (FBS). Sixteen hours before each assay, cells were collected and resuspended at 1,000,000 cells/ml in media without FBS. Cells were cultured in spinner flasks at 37° C. in an atmosphere of 5% CO2. At the time of the assay, cells were pelleted by centrifugation and resuspended in media without FBS at a concentration of 250,000 cells/ml. The cell suspension was pipetted into black 96-well microtiter plates (25,000 cells/well) containing test compounds. After a four-hour incubation at 37° C., media was aspirated, followed by addition of 50 microliters of LucLite and PBS (1:1) containing 1 mM CaCl2 and 1 mM MgCl2. The plates were sealed and incubated for 20 minutes in the dark. Luminescent responses were measured using a Packard TopCount.
Structure activity studies were performed on CHO-6CRE-luciferase cells with or without co-transfected hCT2R. Forty-eight hours before each assay, cells were removed with trypsin and plated in 96-well microtiter plates at a concentration of 25–100,000 cells/well. Sixteen hours before each assay, FBS-containing media was removed and replaced with media without FBS. Compounds were added and incubated for four hours at 37° C. After incubation, media was aspirated and 50 microliters of LucLite in PBS (1:1) containing 1 mM CaCl2 and 1 mM MgCl2 were added to each well. Plates were sealed and incubated for 20 minutes in the dark before quantification of luminescence on a Packard TopCount.
Concentration-response curves were calculated and potencies were reported as the concentration of compounds producing half-maximal responses (EC50) or the negative log of the concentration of compounds producing half-maximal responses (pEC50).

CCOC(=O)c1c(CCc2ccc(F)cc2)cc2c(c1-c1ccc(C(=O)O)cc1)C(=O)N1CCC[C@@H]21 [Example 49, 4-{(9bS)-7-(ethoxycarbonyl)-8-[2-(4-fluorophenyl)ethyl]-5-oxo-2,3,5,9b-tetrahydro-1H-pyrrolo[2,1-α]isoindol-6-yl}benzoic acid] and CCOC(=O)c1c(CCc2ccc(F)cc2)cc2c(c1-c1ccc(C(=O)OCc3ccccc3)cc1)C(=O)N1CCC[C@@H]21 [Example 48, Ethyl (9bS)-6-{4-[(benzyloxy)carbonyl]phenyl}-8-[2-(4-fluorophenyl)ethyl]-5-oxo-2,3,5,9b-tetrahydro-1H-pyrrolo[2.1-a]isoindole-7-carboxylate] cannot be ordered by EC50: no less than 1000 nM for the first, no less than 1000 nM for the second.

Compared with CCOC(=O)C1=C(Cc2ccc(F)cc2)Nc2c(c(=O)n3n2CCC3)C1c1ccc(C(=O)N[C@@H]2CCc3ccccc32)cc1 (stereo partly drawn) [Example 60, Ethyl 4-(4-{[(1R)-2,3-dihydro-1H-inden-1-ylamino]carbonyl}phenyl)-2-(4-fluorobenzyl)-5-oxo-1,5,8,9-tetrahydro-4H,7H-pyrazolo[1′,2′:1,2]pyrazolo[3,4-b]pyridine-3-carboxylate], CCOC(=O)c1c(Cc2ccc(F)cc2)nc2c(c1-c1ccc(C(=O)NN3CCc4ccccc43)cc1)C(=O)N1CCC[C@@H]21 [Example 55, Ethyl (9aS)-4-{4-[(2,3-dihydro-1H-indol-1-ylamino)carbonyl]phenyl}-2-(4-fluorobenzyl)-5-oxo-7,8,9,9a-tetrahydro-5H-pyrido[2,3-α]pyrrolizine-3-carboxylate] is lower in EC50: 100 to 1000 nM for the first, 10 to 100 nM for the second.

CCOC(=O)c1c(CCc2ccc(C(F)(F)F)cc2)nc2c(c1-c1ccc(C(=O)NCc3ccco3)cc1)C(=O)N1CSC[C@@H]21 [Example 34, Ethyl (9aR)-4-(4-{[(2-furylmethyl)amino]carbonyl}phenyl)-5-oxo-2-{2-[4-(trifluoromethyl)phenyl]ethyl}-9,9a-dihydro-5H-[1,3]thiazolo[3′,4′:1,2]pyrrolo[3,4-b]pyridine-3-carboxylate] and CCOC(=O)c1c(CCc2ccc(OC)cc2)nc2c(c1-c1ccc(C(=O)NCc3ccco3)cc1)C(=O)N1CCC[C@H]21 [Example 1, Ethyl (9aR)-4-(4-{[(2-furylmethyl)amino]carbonyl}phenyl)-2-[2-(4-methoxyphenyl)ethyl]-5-oxo-7,8,9,9a-tetrahydro-5H-pyrido[2,3-α]pyrrolizine-3-carboxylate] cannot be ordered by EC50: no more than 10 nM for the first, 10 to 100 nM for the second.

First: CCOC(=O)c1c(CCc2ccc(F)cc2)nc2c(c1-c1ccc(C(=O)NCc3ccco3)cc1)c(=O)n1n2CCC1 [Example 8, Ethyl 2-[2-(4-fluorophenyl)ethyl]-4-(4-{[(2-furylmethyl)amino]carbonyl}phenyl)-5-oxo-8,9-dihydro-5H,7H-pyrazolo[1′,2′:1,2]pyrazolo[3,4-b]pyridine-3-carboxylate]
Second: Cc1nc2c(c(-c3ccc(C(=O)NCc4ccco4)cc3)c1C(=O)CCc1ccc(F)cc1)C(=O)N1CCC[C@@H]21 [Example 30, 4-{(9aS)-3-[3-(4-fluorophenyl)propanoyl]-2-methyl-5-oxo-7,8,9,9a-tetrahydro-5H-pyrido[2,3-α]pyrrolizin-4-yl}-N-(2-furylmethyl)benzamide]
The EC50 of the first is lower: no more than 10 nM for the first, 100 to 1000 nM for the second. The first is the more potent here.

First: CCOC(=O)c1c(CCc2ccc(C(F)(F)F)cc2)nc2c(c1-c1ccc(CNC(=O)c3cccnc3)s1)C(=O)N1CCC[C@@H]21 [Example 47, Ethyl (9aS)-5-oxo-4-(5-{[(3-pyridinylcarbonyl)amino]methyl}-2-thienyl)-2-{2-[4-(trifluoromethyl)phenyl]ethyl}-7,8,9,9a-tetrahydro-5H-pyrido[2,3-α]pyrrolizine-3-carboxylate]
Second: O=C(NCc1ccco1)c1ccc(-c2c(NC(=O)C(F)(F)F)c(CCc3ccc(C(F)(F)F)cc3)nc3c2C(=O)N2CCC[C@@H]32)cc1 [Example 27, 4-((9aS)-3-[(Trifluoromethylcarbonyl)amino]-5-oxo-2-{2-[4-(trifluoromethyl)phenyl]ethyl}-7,8,9,9a-tetrahydro-5H-pyrido[2,3-α]pyrrolizin-4-yl)-N-(2-furylmethyl)benzamide]
The EC50 of the first is lower: 10 to 100 nM for the first, 100 to 1000 nM for the second. The first is the more potent here.
